Data from PubChem BioAssay AID179 (DTP/NCI, 2004).
Calls of active or inactive are those of the source.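 Rule for the calls: active = compounds giving half or more protection of infected cells from virus-caused growth loss, again on retest; inactive = the rest.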 Where a SMILES comes first, the peptide text is derived from it.

Test system: CEM cells HIV-1 protection, formazan growth assay
Assay: NCI AIDS Antiviral Assay
Conditions: for IC50: measured here: growth of uninfected CEM cells
Outline: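 Protection of CEM cells against HIV-1 was scored from cell growth (soluble formazan) across five concentrations, with parallel uninfected cells. Lack of protection may reflect toxicity.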

SMILES | EC50 [µM] | IC50 [µM] | outcome
CCOC(=O)CC1c2ccc(O)cc2OC(=O)C1c1ccc([N+](=O)[O-])cc1 (stereo not given) | > 200 | 31.6 | 
O=C(C(Cl)=C(N1CCCCC1)N1CCCCC1)C(Cl)Cl | > 200 | 174 | 
CC1OC(O[C@H]2/C=C/C=C/C=C/C=C/C=C/C=C/C=C/[C@H](C)[C@@H](O)[C@@H](C)[C@H](C)OC(=O)C[C@H](O)C[C@H](O)CC[C@@H](O)[C@H](O)C[C@H](O)C[C@]3(O)C[C@H](O)[C@@H](C(=O)O)[C@H](C2)O3)C(O)C(N)C1O (stereo not given in full) | > 4.9 |  | 
COc1cc2c3c(c1)[nH]c(=S)n3C(=O)CS2 | > 28.8 | > 28.8 | 
CCOC(=O)C(Cc1c2ccccc2cc2ccccc12)(NC(C)=O)C(=O)OCC | > 200 | > 200 | 
COC(=O)c1cc(C(=O)c2cc(Br)c(OC)c(C(=O)OC)c2)cc(Br)c1OC | > 200 | 67.6 | 
N#C/C(=C/n1c(=S)[nH]c2ccccc21)C(N)=O | > 200 | > 200 | 
C[C@@H]1OCN(C(=O)c2ccccc2SSc2ccccc2C(=O)N2CO[C@H](C)[C@H]2C(=O)O)[C@H]1C(=O)O | > 200 | > 200 | 
O=C(NC1=C(Cl)C(=O)c2ccccc2C1=O)C(=O)C(C(=O)c1ccc2ccccc2c1)C1OC(=O)c2ccccc21 (stereo not given) | > 45.7 | 11.5 | 
NC(CC(O)(c1ccccc1)c1ccccc1)c1ccccc1S (stereo not given) | > 200 |  | 
CN1C(=O)C(O)CC1c1cccc(F)c1 (stereo not given) | > 200 | > 200 | 
COc1cc2c(cc1OC)C(=O)/C(=C/c1ccc(O)cc1)CC2 |  |  | inactive
COc1ccc(C2c3cc4c(cc3OC(N3CCOCC3)C2C)OCO4)cc1OC (stereo not given) | > 200 | 7.76 | 
N#CC12CC3=C(N=C1NC1=C(CCc4ccccc41)C2)c1ccccc1CC3 (stereo not given) | > 200 | 3.02 | 
Cc1cc(NC(=O)c2ccc(NC(=O)c3ccc(N)cc3)cc2)ccc1N=Nc1ccc2c(O)c(N=Nc3ccc(S(=O)(=O)O)cc3C)c(S(=O)(=O)O)cc2c1 | 6.17 | > 100 | 
N#CCc1nc(-c2cc3c(ccc4ccccc43)oc2=O)cs1 | > 200 | 178 | 
S=c1cc(-c2ccc3c(c2)OCO3)s[nH]1 | > 200 | 162 | 
Cc1nc2ccccc2n1C(=O)c1c(F)c(F)c(F)c(F)c1F | > 200 | 33.9 | 
COc1ccc(-c2cc(=O)c3c(OC)c(OC)c(OC)cc3o2)cc1 | > 129 | 41.7 | 
CCC(C)C(NC(=O)C(CC(C)C)NC(=O)C(N)Cc1c[nH]c2ccccc12)C(=O)NC(Cc1c[nH]c2ccccc12)C(=O)O (stereo not given) (H-WLIW-OH; configuration not given here) | > 407 | > 407 | 
COC(=O)CCC(=O)Nc1ccc(Cl)cc1C |  |  | inactive
N/N=C(\c1ccccc1)c1ccc([N+](=O)[O-])cc1 | > 135 | 97.7 | 
O=C1CC2c3[nH]c4ccccc4c3CCN2C2=C1CCCC2 (stereo not given) | > 200 | 10.2 | 

SMILES | EC50 [µM] | IC50 [µM] | outcome
O=C(Nc1ccccc1C(=O)O)C(=Cc1ccccc1O)NC(=O)c1ccccc1 | > 200 | > 200 | 
CCN(CC)CC1CCCCCCCCCCC1=O (stereo not given) |  |  | inactive
CC(=O)NNc1nc(C)c(C(=O)NNC(=O)C(=O)Nc2ccc([N+](=O)[O-])cc2[N+](=O)[O-])s1 | > 204 | 38 | 
C(=Nc1cccnc1)c1ccc2ccccc2n1 | > 81.3 | 44.7 | 
NCCCNCCSSCc1ccccc1CSSCCNCCCN |  |  | inactive
c1cnc2nc3c4ccccc4c4ccccc4c3nc2c1 | > 35.5 | > 35.5 | 
COc1cccc2c1C(=N)c1c(O)c3c(c(O)c1C2=O)C[C@@](O)(C(C)=O)C[C@@H]3OC1CC(N)C(O)C(C)O1 (stereo not given in full) | > 0.2 | 0.00631 | 
CN(C)Cc1cc(C(=O)/C=C/c2cccc(Cl)c2)cc(CN(C)C)c1O |  |  | inactive
N/C(=N\N=C/c1cc(Cl)cc(Cl)c1O)NO |  |  | inactive
O=C([O-])c1ccccn1.O=C([O-])c1ccccn1.[Cu+2] | > 200 | 7.76 | 
NC(=S)N/N=C1\CCCC\C1=N/NC(N)=S | > 200 | 17.8 | 
NC(=O)OCC(COc1ccc(Cl)cc1)OC(=O)c1ccccc1Cl (stereo not given) | > 93.3 | 70.8 | 
CCOC(=O)c1c(SC)nc(-c2ccc(Cl)cc2)sc1=N | > 200 | 12 | 
COC(=O)c1oc([N+](=O)[O-])c(-c2ccccc2)c1-c1ccccc1 | > 57.5 | > 57.5 | 
Cc1cc2c3c(c1)C(=O)CCN3CCC2=O |  |  | inactive
NS(=O)(=O)c1cc[c]([Sb]=[O])cc1 | > 200 | 61.7 | 
COc1ccc(C2Oc3ccccc3C(=O)C2N)cc1 (stereo not given) | > 200 | 93.3 | 
O=C(CCCCC1CCSS1)N(C(=O)NC1CCCCC1)C1CCCCC1 (stereo not given) | > 200 | 10.5 | 
C/C(=N/O)C1CC=C(S(=O)(=O)c2ccccc2)C1 (stereo not given) |  |  | inactive
N#Cc1c2c(c(Nc3ccc(F)cc3)n3c1nc1ccccc13)CCCC2 | > 200 | 81.3 | 
CN1Cc2cc3cc4c(cc3nc2N(C)C1)OCCO4 | > 200 | 162 | 
CSc1n[n+](C)cc(N)c1N | > 200 | 28.8 | 
